# Biological target: T1, hVR1 (Homo sapiens, UniProt Q8NER1)
# T1 construct: expressed in transfected cells; host or cells: HEK293
# Experiment: Human VR1 (hVR1) Functional Assay (FLIPR intracellular calcium, capsaicin challenge)
# Type: cell-based
# Details: capsaicin 0.030 μM, HEK293 cells expressing hVR1; for inhibition at 1 µM: test concentration 1 μM
# T1 sequence (Q8NER1 whole entry): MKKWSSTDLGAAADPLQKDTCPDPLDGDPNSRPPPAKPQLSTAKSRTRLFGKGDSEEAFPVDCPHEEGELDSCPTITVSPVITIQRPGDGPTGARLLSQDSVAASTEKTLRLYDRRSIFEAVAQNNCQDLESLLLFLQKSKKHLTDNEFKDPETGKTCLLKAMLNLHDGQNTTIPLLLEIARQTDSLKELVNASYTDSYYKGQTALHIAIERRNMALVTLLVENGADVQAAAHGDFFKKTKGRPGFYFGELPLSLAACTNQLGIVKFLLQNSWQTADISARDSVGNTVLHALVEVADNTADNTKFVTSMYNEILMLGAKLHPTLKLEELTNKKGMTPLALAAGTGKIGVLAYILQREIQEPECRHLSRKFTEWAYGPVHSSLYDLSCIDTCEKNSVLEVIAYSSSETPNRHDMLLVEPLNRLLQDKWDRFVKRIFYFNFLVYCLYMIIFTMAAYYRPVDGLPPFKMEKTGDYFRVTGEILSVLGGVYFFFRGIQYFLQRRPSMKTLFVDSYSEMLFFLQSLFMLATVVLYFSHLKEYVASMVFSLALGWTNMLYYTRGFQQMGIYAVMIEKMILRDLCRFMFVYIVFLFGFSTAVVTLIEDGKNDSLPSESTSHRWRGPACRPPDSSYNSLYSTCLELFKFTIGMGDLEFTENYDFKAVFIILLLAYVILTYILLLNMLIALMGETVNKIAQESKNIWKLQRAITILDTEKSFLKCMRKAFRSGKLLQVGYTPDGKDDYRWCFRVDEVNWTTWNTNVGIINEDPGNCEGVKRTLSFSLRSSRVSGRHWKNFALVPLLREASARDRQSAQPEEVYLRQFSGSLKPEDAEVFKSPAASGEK
SMILES,IC50,inhibition at 1 µM
"CC(=O)c1ccccc1-c1cc2nc(/C=C/c3ccc(C(F)(F)F)cc3)[nH]c2cc1F [Cpd 62, (E)-1-(2-{6-fluoro-2-[2-(4-trifluoromethyl-phenyl)-vinyl]-1H-benzimidazol-5-yl}-phenyl)-ethanone]",200 nM,100%
"OCc1ccccc1-c1ccc2[nH]c(C3CC3c3ccc(C(F)(F)F)cc3)nc2c1 (centres unmarked) [Cpd 474, (2-{2-[2-(4-trifluoromethyl-phenyl)-cyclopropyl]-1H-benzimidazol-5-yl}-phenyl)-methanol]",> 500 nM,
"CC(C)(C)c1ccc(/C=C/c2nc3cc(-c4ccccc4C(N)=O)c(C(F)(F)F)cc3[nH]2)cc1 [Cpd 53, (E)-2-{2-[2-(4-tert-butyl-phenyl)-vinyl]-6-trifluoromethyl-1H-benzimidazol-5-yl}-benzamide]",47 nM,98%
"CCOc1ccc(/C=C/c2nc3cc(-c4ccccc4NS(C)(=O)=O)ccc3[nH]2)cc1 [Cpd 414, (E)-N-(2-{2-[2-(4-ethoxy-phenyl)-vinyl]-1H-benzimidazol-5-yl}-phenyl)-methanesulfonamide]",140 nM,98%
"OCc1ccccc1-c1ccc2[nH]c(/C=C/c3ccc(SC(F)(F)F)cc3)nc2c1 [Cpd 35, (E)-(2-{2-[2-(4-trifluoromethylsulfanyl-phenyl)-vinyl]-1H-benzimidazol-5-yl}-phenyl)-methanol]",41 nM,100%
"NS(=O)(=O)c1ccccc1-c1ccc2[nH]c(/C=C/c3cc(C(F)(F)F)ccc3C(F)(F)F)nc2c1 [Cpd 374, (E)-2-{2-[2-(2,5-bis-trifluoromethyl-phenyl)-vinyl]-1H-benzimidazol-5-yl}-benzenesulfonamide]",34 nM,99%
"NS(=O)(=O)c1ccccc1-c1ccc2[nH]c(CCc3ccccc3Cl)nc2c1 [Cpd 402, 2-{2-[2-(2-chloro-phenyl)-ethyl]-1H-benzimidazol-5-yl}-benzenesulfonamide]",38 nM,93%
"CC(C)(O)c1ccccc1-c1ccc2[nH]c(C3CC3c3ccc(OC(F)(F)F)cc3)nc2c1 (centres unmarked) [Cpd 497, 2-(2-{2-[2-(4-trifluoromethoxy-phenyl)-cyclopropyl]-1H-benzimidazol-5-yl}-phenyl)-propan-2-ol]",39 nM,94%
"NS(=O)(=O)c1ccccc1-c1ccc2[nH]c(/C=C/c3ccc(F)c(F)c3F)nc2c1 [Cpd 370, (E)-2-{2-[2-(2,3,4-trifluoro-phenyl)-vinyl]-1H-benzimidazol-5-yl}-benzenesulfonamide]",13 nM,98%
"NS(=O)(=O)c1ccccc1-c1ccc2[nH]c(/C=C/c3ccc(Br)cc3)nc2c1 [Cpd 363, (E)-2-{2-[2-(4-bromo-phenyl)-vinyl]-1H-benzimidazol-5-yl}-benzenesulfonamide]",12 nM,98%
"Cc1ccc(/C=C/c2nc3cc(-c4ccccc4S(N)(=O)=O)ccc3[nH]2)cc1 [Cpd 430, (E)-2-[2-(2-p-tolyl-vinyl)-1H-benzimidazol-5-yl]-benzenesulfonamide]",9 nM,100%
"COC(=O)Nc1ccccc1-c1ccc2[nH]c(/C=C/c3ccc(C(F)(F)F)cc3)nc2c1 [Cpd 462, (E)-(2-{2-[2-(4-trifluoromethyl-phenyl)-vinyl]-1H-benzimidazol-5-yl}-phenyl)-carbamic acid methyl ester]",97 nM,98%
"CNS(=O)(=O)c1ccccc1-c1ccc2[nH]c(/C=C/c3ccc(Cl)c(Cl)c3)nc2c1 [Cpd 316, (E)-2-{2-[2-(3,4-dichloro-phenyl)-vinyl]-1H-benzimidazol-5-yl}-N-methyl-benzenesulfonamide]",12 nM,101%
"CNS(=O)(=O)c1ccccc1-c1ccc2[nH]c(/C=C/c3ccc(OC(F)(F)F)cc3)nc2c1 [Cpd 345, (E)-N-methyl-2-{2-[2-(4-trifluoromethoxy-phenyl)-vinyl]-1H-benzimidazol-5-yl}-benzenesulfonamide]",13 nM,101%
"CSc1ccccc1-c1ccc2[nH]c(/C=C/c3ccc(C(F)(F)F)cc3)nc2c1 [Cpd 480, (E)-5-(2-methylsulfanyl-phenyl)-2-[2-(4-trifluoromethyl-phenyl)-vinyl]-1H-benzimidazole]",> 500 nM,
"CC(=O)Nc1ccccc1-c1cc2nc(/C=C/c3ccc(C(F)(F)F)cc3)[nH]c2cc1F [Cpd 64, (E)-N-(2-{6-fluoro-2-[2-(4-trifluoromethyl-phenyl)-vinyl]-1H-benzimidazol-5-yl}-phenyl)-acetamide]",,41%
"O=S(=O)(CC(F)(F)F)Nc1ccccc1-c1ccc2[nH]c(/C=C/c3ccc(C(F)(F)F)cc3)nc2c1 [Cpd 459, (E)-2,2,2-trifluoro-ethanesulfonic acid (2-{2-[2-(4-trifluoromethyl-phenyl)-vinyl]-1H-benzimidazol-5-yl}-phenyl)-amide]",,0%
"NS(=O)(=O)Nc1ccccc1-c1ccc2[nH]c(/C=C/c3ccc(C(F)(F)F)cc3)nc2c1 [Cpd 470, (E)-5-(2-aminosulfonylamino-phenyl)-2-[2-(4-trifluoromethyl-phenyl)-vinyl]-1H-benzimidazole]",45 nM,97%
"NCc1ccccc1-c1ccc2[nH]c(CCc3ccc(C(F)(F)F)cc3)nc2c1 [Cpd 486, 2-{2-[2-(4-trifluoromethyl-phenyl)-ethyl]-1H-benzimidazol-5-yl}-benzylamine]",> 500 nM,
"CNS(=O)(=O)c1ccccc1-c1ccc2[nH]c(/C=C/c3ccc(C(=O)O)cc3)nc2c1 [Cpd 453, (E)-4-{2-[5-(2-methylsulfamoyl-phenyl)-1H-benzimidazol-2-yl]-vinyl}-benzoic acid]",,22%
"CS(=O)(=O)Nc1ccccc1-c1ccc2[nH]c(/C=C/c3ccc(-c4ccccc4)cc3)nc2c1 [Cpd 475, (E)-N-{2-[2-(2-biphenyl-4-yl-vinyl)-1H-benzimidazol-5-yl]-phenyl}-methanesulfonamide]",77 nM,
"NC(=O)c1ccccc1-c1cc2nc(/C=C/c3ccc(C(F)(F)F)cc3)[nH]c2cc1F [Cpd 63, (E)-2-{6-fluoro-2-[2-(4-trifluoromethyl-phenyl)-vinyl]-1H-benzimidazol-5-yl}-benzamide]",260 nM,97%
"NS(=O)(=O)c1ccccc1-c1ccc2[nH]c(CCc3ccc(OC(F)(F)F)cc3)nc2c1 [Cpd 129, 2-{2-[2-(4-trifluoromethoxy-phenyl)-ethyl]-1H-benzimidazol-5-yl}-benzenesulfonamide]",34 nM,96%
"CNS(=O)(=O)c1ccccc1-c1ccc2[nH]c(/C=C/c3c(F)cccc3F)nc2c1 [Cpd 327, (E)-2-{2-[2-(2,6-difluoro-phenyl)-vinyl]-1H-benzimidazol-5-yl}-N-methyl-benzenesulfonamide]",343 nM,77%
"CNS(=O)(=O)c1ccccc1-c1ccc2[nH]c(/C=C/c3cccc(F)c3F)nc2c1 [Cpd 325, (E)-2-{2-[2-(2,3-difluoro-phenyl)-vinyl]-1H-benzimidazol-5-yl}-N-methyl-benzenesulfonamide]",,73%
"NS(=O)(=O)c1ccccc1-c1ccc2[nH]c(CCc3c(F)cccc3F)nc2c1 [Cpd 386, 2-{2-[2-(2,6-difluoro-phenyl)-ethyl]-1H-benzimidazol-5-yl}-benzenesulfonamide]",43 nM,96%
